A value given as a limit tells only on which side of the number the result lay.

For 12 compounds, IC50 results are on record in patent US20250197372A1 (priority 2020, published 2025).

What all share (type): biochemical
Assay [1] has as its target T1, recombinant alpha-glucosidase I (human full-length glucosidase I, Glu 1) (Homo sapiens, UniProt Q13724).
T1 construct: 6-His (C); made in house; host or cells: HEK-293T cells transduced with BacMam virus (virus raised in Sf9)
T1 sequence (Q13724 1-837): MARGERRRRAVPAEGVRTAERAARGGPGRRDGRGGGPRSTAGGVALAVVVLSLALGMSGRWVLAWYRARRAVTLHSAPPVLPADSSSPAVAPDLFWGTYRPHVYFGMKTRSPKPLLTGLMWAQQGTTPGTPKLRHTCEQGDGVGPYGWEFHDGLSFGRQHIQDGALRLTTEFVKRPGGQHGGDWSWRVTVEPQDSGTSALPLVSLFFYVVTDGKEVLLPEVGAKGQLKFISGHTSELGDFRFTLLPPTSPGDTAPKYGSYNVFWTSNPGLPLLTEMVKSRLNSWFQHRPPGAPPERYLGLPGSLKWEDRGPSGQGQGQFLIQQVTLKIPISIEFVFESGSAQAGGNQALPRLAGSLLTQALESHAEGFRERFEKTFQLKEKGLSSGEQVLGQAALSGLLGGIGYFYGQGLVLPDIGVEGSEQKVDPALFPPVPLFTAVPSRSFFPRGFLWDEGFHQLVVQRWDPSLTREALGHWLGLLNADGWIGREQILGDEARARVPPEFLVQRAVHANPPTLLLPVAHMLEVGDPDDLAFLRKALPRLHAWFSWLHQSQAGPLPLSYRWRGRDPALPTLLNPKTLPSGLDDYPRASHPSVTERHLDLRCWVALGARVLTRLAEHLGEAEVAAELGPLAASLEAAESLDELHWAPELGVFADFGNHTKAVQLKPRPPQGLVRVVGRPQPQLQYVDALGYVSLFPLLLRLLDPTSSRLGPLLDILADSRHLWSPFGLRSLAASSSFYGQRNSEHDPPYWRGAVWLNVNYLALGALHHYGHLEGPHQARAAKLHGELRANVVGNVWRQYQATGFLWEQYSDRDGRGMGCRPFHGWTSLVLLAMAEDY
Description: Alpha-glucosidase I assay (Amplex Red glucose detection, synthetic trisaccharide substrate). Particulars: Glucosidase 1; read-out: Glu 1 IC50. A digest of the protocol: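 Human full-length glucosidase I, His-tagged, […] and Ni-purified. Enzyme preincubated with compound dilutions 60 min at 37° C, then synthetic trisaccharide substrate 90 min at 37° C; stopped with 1.5M Tris pH 8.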

Assay [2] has as its target rat maltase (partially purified alpha-glucosidase from intestinal rat powder). The assay can be described thus: Intestinal alpha-glucosidase assay, maltose substrate (Glucose GO Kit). A digest of the protocol:
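First step: 60 min, 37 °C, compound with partially purified rat intestinal alpha-glucosidase. Next, maltose or sucrose for 30 min at 37 °C, ended at 90 °C for 5 min. Glucose quantified enzymatically; concentration–inhibition data fitted 4-PL for IC50.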

The target in assay [3] is recombinant human GAA (acid alpha-glucosidase) (Homo sapiens, UniProt P10253). The assay can be described thus: Acid alpha-glucosidase (GAA) assay (4-methylumbelliferyl-alpha-D-pyranoside substrate, fluorescence). The method in brief:
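Recombinant human enzyme preincubated 60 min at 37 °C with compound dilutions, then 4-methylumbelliferyl-alpha-D-pyranoside substrate added for 20 min at 37 °C. Stopped with glycine/NaOH pH 10; methylumbelliferone fluorescence (ex 365, em 440 nm) versus untreated enzyme; IC50 by 4-PL fit.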

In the case of `Cc1cc(NCc2ccc(CN3C[C@H](O)[C@@H](O)[C@H](O)[C@H]3CO)cc2)cc(-c2ncco2)c1` [Compound 1315, (2R,3R,4R,5S)-2-(hydroxymethyl)-1-{[4-({[3-methyl-5-(1,3-oxazol-2-yl)phenyl]amino}methyl)phenyl]methyl}piperidine-3,4,5-triol], the IC50 (usually the concentration that gives 50% inhibition) worked out at 40 nM in assay [1], 9 nM in assay [2] and 440 nM in assay [3].
With `Cc1cc(NCc2ccc(CN3C[C@H](O)[C@@H](O)[C@H](O)[C@H]3CO)cc2)cc(-n2nccn2)c1` [Compound 1316, (2R,3R,4R,5S)-2-(hydroxymethyl)-1-{[4-({[3-methyl-5-(2H-1,2,3-triazol-2-yl)phenyl]amino}methyl)phenyl]methyl}piperidine-3,4,5-triol], the results for the IC50 in assay [1], in assay [2] and in assay [3] were 16 nM, 6 nM and 94 nM, respectively.
In the same order, the values of `Cc1cc(NCc2ccc(CN3C[C@H](O)[C@@H](O)[C@H](O)[C@H]3CO)cc2)cc(-c2ccco2)c1` [Compound 1317, (2R,3R,4R,5S)-1-{[4-({[3-(furan-2-yl)-5-methylphenyl]amino}methyl)phenyl]methyl}-2-(hydroxymethyl)piperidine-3,4,5-triol] are less than 1 nM, less than 1 nM and 480 nM.
For `Cc1cc(NCc2cccc(CN3C[C@H](O)[C@@H](O)[C@H](O)[C@H]3CO)n2)cc(-c2ncccn2)c1` [Compound 1322, (2R,3R,4R,5S)-2-(hydroxymethyl)-1-{[6-({[3-methyl-5-(pyrimidin-2-yl)phenyl]amino}methyl)pyridin-2-yl]methyl}piperidine-3,4,5-triol], the IC50 amounted to 3120 nM in assay [1], 388 nM in assay [2] and 1110 nM in assay [3].
Turning to `Cc1cc(NCc2ccc(CN3C[C@H](O)[C@@H](O)[C@H](O)[C@H]3CO)cc2)cc(-n2ccnn2)c1` [Compound 1323, (2R,3R,4R,5S)-2-(hydroxymethyl)-1-{[4-({[3-methyl-5-(1H-1,2,3-triazol-1-yl)phenyl]amino}methyl)phenyl]methyl}piperidine-3,4,5-triol], the IC50 in assay [1] worked out at 11 nM; in assay [2], 11 nM; in assay [3] it was 76 nM.
`OC[C@@H]1[C@@H](O)[C@H](O)[C@@H](O)CN1Cc1cnc(CNc2cc(-c3ncccn3)cc(C3CC3)c2)cn1` [Compound 1329, (2R,3R,4R,5S)-1-{[5-({[3-cyclopropyl-5-(pyrimidin-2-yl)phenyl]amino}methyl)pyrazin-2-yl]methyl}-2-(hydroxymethyl)piperidine-3,4,5-triol]: the IC50 in assay [1] was determined as 1870 nM; in assay [2], 548 nM; in assay [3] it was 50 nM.
In the same order, the values of `Cc1cc(NCc2cnc(CN3C[C@H](O)[C@@H](O)[C@H](O)[C@H]3CO)cn2)cc(-c2ccc[nH]2)c1` [Compound 1330, (2R,3R,4R,5S)-2-(hydroxymethyl)-1-{[5-({[3-methyl-5-(1H-pyrrol-2-yl)phenyl]amino}methyl)pyrazin-2-yl]methyl}piperidine-3,4,5-triol] are 1420 nM, 577 nM and 90 nM.
On to `Cc1cc(NCc2cnc(CN3C[C@H](O)[C@@H](O)[C@H](O)[C@H]3CO)cn2)cc(N2CCOCC2)c1` [Compound 1332, (2R,3R,4R,5S)-2-(hydroxymethyl)-1-{[5-({[3-methyl-5-(morpholin-4-yl)phenyl]amino}methyl)pyrazin-2-yl]methyl}piperidine-3,4,5-triol], for which the IC50 in assay [1] came out at 2820 nM; in assay [2] it was 573 nM; in assay [3] it was 165 nM.
As to `OC[C@@H]1[C@@H](O)[C@H](O)[C@@H](O)CN1Cc1cccc(CNc2cc(-c3ncccn3)cc(C3CC3)c2)n1` [Compound 1333, (2R,3R,4R,5S)-1-{[6-({[3-cyclopropyl-5-(pyrimidin-2-yl)phenyl]amino}methyl)pyridin-2-yl]methyl}-2-(hydroxymethyl)piperidine-3,4,5-triol], the IC50 was 4530 nM in assay [1], 846 nM in assay [2] and 2180 nM in assay [3].
Regarding `Cc1cc(NCc2cccc(CN3C[C@H](O)[C@@H](O)[C@H](O)[C@H]3CO)n2)cc(-c2ccco2)c1` [Compound 1334, (2R,3R,4R,5S)-1-{[6-({[3-(furan-2-yl)-5-methylphenyl]amino}methyl)pyridin-2-yl]methyl}-2-(hydroxymethyl)piperidine-3,4,5-triol], the IC50 in assay [1] came to 1080 nM; in assay [2], 224 nM; in assay [3], 714 nM.
Regarding `Cc1cc(NCc2cccc(CN3C[C@H](O)[C@@H](O)[C@H](O)[C@H]3CO)n2)cc(N2CCOCC2)c1` [Compound 1336, (2R,3R,4R,5S)-2-(hydroxymethyl)-1-{[6-({[3-methyl-5-(morpholin-4-yl)phenyl]amino}methyl)pyridin-2-yl]methyl}piperidine-3,4,5-triol], the IC50 in assay [1] amounted to 30300 nM; in assay [2], 9990 nM; in assay [3] it was 10400 nM.
As for `COc1ccc(C#CCCCCCN2C[C@H](O)[C@@H](O)[C@H](O)[C@H]2CO)cc1` [Compound 1338, (2R,3R,4R,5S)-2-(hydroxymethyl)-1-[7-(4-methoxyphenyl)hept-6-yn-1-yl]piperidine-3,4,5-triol], the IC50 turned out to be 999 nM in assay [1], 146 nM in assay [2] and 860 nM in assay [3].
